ChEMBL document CHEMBL1135959, “The discovery of SB-435495. A potent, orally active inhibitor of lipoprotein-associated phospholipase A(2) for evaluation in man” (Bioorg Med Chem Lett, 2002)
≈ marks a conversion by molar mass, not a printed value.

Key:
[1] = Oral bioavailability in dog; assay type: ADME, organism-based, Canis lupus familiaris; conditions: in vivo, read-out: Bioavailabiility
Homo sapiens [2] = organism: Homo sapiens; assay: Concentration required to inhibit the production of lyso-PtdCho by the compound during the copper catalyzed oxidation of human LDL; assay type: functional
Cytochrome P450 1A2 = biological target: T1, Cytochrome P450 1A2 (Homo sapiens, UniProt P05177); assay: Inhibition of cytochrome P450 1A2; assay type: ADME
T1 sequence (P05177 whole entry): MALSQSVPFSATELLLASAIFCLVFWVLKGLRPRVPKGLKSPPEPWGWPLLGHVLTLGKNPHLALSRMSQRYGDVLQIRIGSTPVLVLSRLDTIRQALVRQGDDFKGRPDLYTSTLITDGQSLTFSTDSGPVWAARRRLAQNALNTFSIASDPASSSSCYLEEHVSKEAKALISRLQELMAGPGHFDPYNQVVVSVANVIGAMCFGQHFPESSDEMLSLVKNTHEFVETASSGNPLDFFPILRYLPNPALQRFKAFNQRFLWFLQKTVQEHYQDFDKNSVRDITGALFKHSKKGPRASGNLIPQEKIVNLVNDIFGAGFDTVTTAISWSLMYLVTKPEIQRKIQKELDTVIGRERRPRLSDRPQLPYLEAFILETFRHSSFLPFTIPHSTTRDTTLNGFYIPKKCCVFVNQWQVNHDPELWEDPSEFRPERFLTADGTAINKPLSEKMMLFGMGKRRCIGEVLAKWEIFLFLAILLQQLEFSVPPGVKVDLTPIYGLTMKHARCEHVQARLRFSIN

Cytochrome P450 2C9 = Cytochrome P450 2C9 (Homo sapiens, UniProt P11712); assay: Inhibition of cytochrome P450 2C9; assay type: ADME
Cytochrome P450 2C9, sequence (P11712 whole entry): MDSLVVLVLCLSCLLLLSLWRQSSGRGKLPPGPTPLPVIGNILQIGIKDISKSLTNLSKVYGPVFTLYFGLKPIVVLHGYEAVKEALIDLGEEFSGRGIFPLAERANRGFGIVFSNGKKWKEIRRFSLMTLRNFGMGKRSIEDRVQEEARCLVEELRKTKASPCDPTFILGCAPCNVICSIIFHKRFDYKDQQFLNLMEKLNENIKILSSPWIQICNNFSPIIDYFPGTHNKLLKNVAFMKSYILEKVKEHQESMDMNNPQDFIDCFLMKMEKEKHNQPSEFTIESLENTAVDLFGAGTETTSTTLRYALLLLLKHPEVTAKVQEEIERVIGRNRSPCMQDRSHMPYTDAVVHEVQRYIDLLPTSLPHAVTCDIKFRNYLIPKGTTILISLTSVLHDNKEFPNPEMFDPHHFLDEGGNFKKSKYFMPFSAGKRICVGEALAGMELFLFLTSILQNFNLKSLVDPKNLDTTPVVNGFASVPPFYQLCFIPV

Cytochrome P450 3A4 = Cytochrome P450 3A4 (Homo sapiens, UniProt P08684); assay: Inhibition of cytochrome P450 3A4; assay type: ADME
Cytochrome P450 3A4, sequence (P08684 whole entry): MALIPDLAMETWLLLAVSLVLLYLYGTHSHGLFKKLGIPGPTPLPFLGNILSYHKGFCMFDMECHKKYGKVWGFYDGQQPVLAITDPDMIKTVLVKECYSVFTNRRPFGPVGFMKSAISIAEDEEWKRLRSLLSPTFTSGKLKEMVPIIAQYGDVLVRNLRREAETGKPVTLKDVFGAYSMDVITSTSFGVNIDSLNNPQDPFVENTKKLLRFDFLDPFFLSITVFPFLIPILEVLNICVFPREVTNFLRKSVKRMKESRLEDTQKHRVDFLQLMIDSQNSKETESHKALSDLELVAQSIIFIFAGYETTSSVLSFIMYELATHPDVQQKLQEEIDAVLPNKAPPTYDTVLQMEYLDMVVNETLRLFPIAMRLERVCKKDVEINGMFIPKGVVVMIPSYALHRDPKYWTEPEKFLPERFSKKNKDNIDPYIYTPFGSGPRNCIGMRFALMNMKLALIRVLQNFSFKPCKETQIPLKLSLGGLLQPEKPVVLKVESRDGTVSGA

Cytochrome P450 2C19 = Cytochrome P450 2C19 (Homo sapiens, UniProt P33261); assay: Inhibition of cytochrome P450 2C19; assay type: ADME
Cytochrome P450 2C19, sequence (P33261 whole entry): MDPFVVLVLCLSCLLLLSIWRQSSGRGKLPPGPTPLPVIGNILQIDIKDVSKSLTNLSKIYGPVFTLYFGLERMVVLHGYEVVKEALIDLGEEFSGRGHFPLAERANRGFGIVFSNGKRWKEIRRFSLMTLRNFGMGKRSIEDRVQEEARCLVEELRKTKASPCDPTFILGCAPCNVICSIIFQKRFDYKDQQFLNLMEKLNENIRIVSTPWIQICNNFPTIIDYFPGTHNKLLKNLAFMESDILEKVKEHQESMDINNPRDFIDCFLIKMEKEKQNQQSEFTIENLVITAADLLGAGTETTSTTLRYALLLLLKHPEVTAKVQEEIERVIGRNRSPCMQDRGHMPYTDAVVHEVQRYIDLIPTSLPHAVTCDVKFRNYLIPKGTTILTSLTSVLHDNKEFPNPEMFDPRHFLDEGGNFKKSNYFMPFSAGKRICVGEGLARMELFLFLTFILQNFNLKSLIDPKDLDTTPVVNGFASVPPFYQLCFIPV

Cytochrome P450 2D6 = Cytochrome P450 2D6 (Homo sapiens, UniProt P10635); assay: Inhibition of cytochrome P450 2D6; assay type: ADME
Cytochrome P450 2D6, sequence (P10635 whole entry): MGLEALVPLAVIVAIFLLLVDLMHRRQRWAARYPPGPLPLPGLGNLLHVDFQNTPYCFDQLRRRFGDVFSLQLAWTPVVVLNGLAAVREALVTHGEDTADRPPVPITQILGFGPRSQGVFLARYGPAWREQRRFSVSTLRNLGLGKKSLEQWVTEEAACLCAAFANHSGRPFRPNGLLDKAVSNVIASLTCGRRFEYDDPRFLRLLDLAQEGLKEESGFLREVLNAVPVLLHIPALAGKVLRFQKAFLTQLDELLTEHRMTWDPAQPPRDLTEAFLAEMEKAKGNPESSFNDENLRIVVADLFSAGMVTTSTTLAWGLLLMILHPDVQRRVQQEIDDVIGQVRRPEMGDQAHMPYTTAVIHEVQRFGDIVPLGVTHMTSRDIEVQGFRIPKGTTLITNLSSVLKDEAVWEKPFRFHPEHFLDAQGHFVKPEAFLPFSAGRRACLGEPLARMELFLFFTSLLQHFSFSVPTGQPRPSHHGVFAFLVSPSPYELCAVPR

Homo sapiens [3] = organism: Homo sapiens; assay: Concentration required to inhibit the subsequent monocyte chemotaxis by the compound during the copper catalyzed oxidation of human LDL; assay type: functional
[4] = Oral bioavailability in rat; assay type: ADME, organism-based; conditions: in vivo
[5] = Solubility in pure water at pH 4.7; assay type: physicochemical
[6] = Permeability of compound was evaluated in an artificial membrane permeability assay; assay type: ADME, cell membranes; conditions: PAMPA; read-out: Permeability (converted)
[7] = biological target: T2, Platelet-activating factor acetylhydrolase (Homo sapiens, UniProt Q13093); assay: Inhibitory concentration against Lipoprotein-Associated Phospholipase A2 (Lp-PLA2) was estimated
T2 sequence (Q13093 whole entry): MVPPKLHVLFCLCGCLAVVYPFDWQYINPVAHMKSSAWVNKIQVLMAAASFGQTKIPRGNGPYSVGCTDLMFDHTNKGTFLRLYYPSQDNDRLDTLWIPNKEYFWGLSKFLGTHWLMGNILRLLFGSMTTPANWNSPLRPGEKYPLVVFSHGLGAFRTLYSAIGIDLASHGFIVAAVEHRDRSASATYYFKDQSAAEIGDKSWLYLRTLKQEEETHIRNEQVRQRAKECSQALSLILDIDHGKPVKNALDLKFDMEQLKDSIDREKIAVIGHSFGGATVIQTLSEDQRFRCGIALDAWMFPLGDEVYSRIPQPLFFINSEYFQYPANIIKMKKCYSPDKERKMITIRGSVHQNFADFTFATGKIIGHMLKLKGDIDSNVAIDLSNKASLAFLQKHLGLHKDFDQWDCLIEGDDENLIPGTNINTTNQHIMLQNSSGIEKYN

[8] = Acid dissociation constant was determined for the compound; assay type: ADME

Compound | IC50 (Cytochrome P450 3A4) [µM] | Papp [6] [×10⁻⁶ cm/s] | IC50 [7] [µM] | other results
CCN(CC)CCN(Cc1ccc(-c2ccc(C(F)(F)F)cc2)cc1)C(=O)Cn1cc(Cc2cnn(C)c2)c(=O)nc1SCc1ccc(F)cc1 | 10 | 4.72 |  | bioavailability [1]: 24%; IC50 (Homo sapiens [2]): 0.023 µM; IC50 (Cytochrome P450 1A2): 100 µM; IC50 (Cytochrome P450 2C9): 100 µM; IC50 (Cytochrome P450 2C19): > 40 µM; IC50 (Cytochrome P450 2D6): 37 µM; IC50 (Homo sapiens [3]): 0.01 µM; bioavailability [4]: 13%; solubility [5]: 5000 µg/mL (≈ 6.94 mM)
Cn1cc(Cc2cn(CC(=O)N(CCN3CCCCC3)Cc3ccc(-c4ccc(C(F)(F)F)cc4)cc3)c(SCc3ccc(F)cc3)nc2=O)cn1 | 10 | 18.9 | 0.00017 | 
COc1ncc(Cc2cn(CC(=O)N(CCN(C)C)Cc3ccc(-c4ccc(Cl)cc4)cc3)c(SCc3ccc(F)cc3)nc2=O)cn1 |  |  | 0.0002 | 
COc1ncc(Cc2cn(CC(=O)N(CC(=O)O)Cc3ccc(-c4ccc(Cl)cc4)cc3)c(SCc3ccc(F)cc3)nc2=O)cn1 |  |  | 0.001 | 
COc1ncc(Cc2cn(CC(=O)N(CC(=O)N(C)C)Cc3ccc(-c4ccc(Cl)cc4)cc3)c(SCc3ccc(F)cc3)nc2=O)cn1 | < 0.5 |  | 0.0002 | 
COc1ncc(Cc2cn(CC(=O)N(CCO)Cc3ccc(-c4ccc(Cl)cc4)cc3)c(SCc3ccc(F)cc3)nc2=O)cn1 |  |  | 0.0002 | 
CN(C)CCN(Cc1ccc(-c2ccc(C(F)(F)F)cc2)cc1)C(=O)Cn1cc(Cc2cnn(C)c2)c(=O)nc1SCc1ccc(F)cc1 | 30 | < 0.278 |  | 
Cn1cc(Cc2cn(CC(=O)N(CC(=O)N3CCOCC3)Cc3ccc(-c4ccc(C(F)(F)F)cc4)cc3)c(SCc3ccc(F)cc3)nc2=O)cn1 |  |  | 0.0001 | 
Cn1cc(Cc2cn(CC(=O)N(CC(=O)O)Cc3ccc(-c4ccc(C(F)(F)F)cc4)cc3)c(SCc3ccc(F)cc3)nc2=O)cn1 | 31 | < 0.278 |  | 

Now from value to molecule, other results behind:

IC50 (Cytochrome P450 3A4) [µM] | Papp [6] [×10⁻⁶ cm/s] | IC50 [7] [µM] | Compound | other results
19 | 0.556 |  | Cn1cc(Cc2cn(CC(=O)N(CCO)Cc3ccc(-c4ccc(Cl)cc4)cc3)c(SCc3ccc(F)cc3)nc2=O)cn1 | 
2 | < 0.278 |  | CCN(CC)CCCN(Cc1ccc(-c2ccc(Cl)cc2)cc1)C(=O)Cn1cc(Cc2cnn(C)c2)c(=O)nc1SCc1ccc(F)cc1 | pKa [8]: 9
10 | < 0.278 |  | CN1CCN(CCCN(Cc2ccc(-c3ccc(Cl)cc3)cc2)C(=O)Cn2cc(Cc3cnn(C)c3)c(=O)nc2SCc2ccc(F)cc2)CC1 | 
6 | 1.11 |  | Cn1cc(Cc2cn(CC(=O)N(CCN3CCCC3)Cc3ccc(-c4ccc(Cl)cc4)cc3)c(SCc3ccc(F)cc3)nc2=O)cn1 | 
8 | 0.556 |  | CN(C)CCN(Cc1ccc(-c2ccc(Cl)cc2)cc1)C(=O)Cn1cc(Cc2cnn(C)c2)c(=O)nc1SCc1ccc(F)cc1 | 
> 0.5 |  |  | CN(C)C(=O)CN(Cc1ccc(-c2ccc(Cl)cc2)cc1)C(=O)Cn1cc(Cc2cnn(C)c2)c(=O)nc1SCc1ccc(F)cc1 | 
5 | 8.06 |  | CCN(CC)CCN(Cc1ccc(-c2ccc(Cl)cc2)cc1)C(=O)Cn1cc(Cc2cnn(C)c2)c(=O)nc1SCc1ccc(F)cc1 | pKa [8]: 8.3
15 | 0.556 |  | Cn1cc(Cc2cn(CC(=O)N(CCN)Cc3ccc(-c4ccc(Cl)cc4)cc3)c(SCc3ccc(F)cc3)nc2=O)cn1 | 
17 | 0.278 |  | CN(C)CCCN(Cc1ccc(-c2ccc(Cl)cc2)cc1)C(=O)Cn1cc(Cc2cnn(C)c2)c(=O)nc1SCc1ccc(F)cc1 | 
